The values below are quoted from earlier work in patent publication US10603302B2, “Water soluble flavonoids” (priority 2017, dated 2020).

For the data set the following is noted: background statement.

Turning to `O=C1c2c(O)cc(O)cc2OC(c2ccc(O)c(O)c2)C1O` (stereo not shown) [Taxifolin, 5,7,31,41-tetrahydroxyflavanol,dihydroquercetin], the solubility in water entry was “slightly soluble in water”.
